This note sets out measurements from patent US10583098B2, “Topical co-enzyme Q10 formulations and treatment of pain, fatigue and wounds” (priority 2006, dated 2020).

What all share (type): cell-based
The subject of assay [1] is Human Aortic Smooth Muscle Cells (HASMC). Briefly: ATP production in HASMC, Luciferin-Luciferase ATP assay. The settings on record: 0-20 μg/ml, 24 h, in words. The procedure: We have investigated the effect of Q10 on ATP production in Human Aortic Smooth Muscle Cells (HASMC). This cell line was chosen for the study based on its ability to produce ATP at levels detectable by the Luciferin-Luciferase ATP assay. We also studied the effect of The composition comprising about 0.001% to about 60% (w/w) Coenzyme Q10 on Muscle Cell proliferation.
(§1) D-(+)-Glucose at 10 mM (Peiro et al., Brit. Jour. of Pharmacology 133: 967-974 (2001)) was used as an energy substrate for the production of ATP. The wells of the 6-well plate were incubated with 0-20 μg/ml of CoQ10, 1 μg and 20 μg/ml CoQ10, or 1 μg and 20 μg/ml of the Vehicle of Coenzyme Q10, all in Medium 231. The well plates were incubated at 37° C. and 5% CO2 for specified experimental periods. Medium 231 contains 4.6 mM Glu originally, thus only an additional 5.4 mM added to medium (Dr. Gary D. Shipley, Cascade Biologics, Portland, Oreg.).
After incubation, the medium was removed and replaced with cold (4° C.) 1% w/v Trichloroacetic Acid (TCA) as the lysis buffer. This buffer causes almost instantaneous inhibition of ATPases (Kangas et al., Med Biol 62: 338-343 (1984)). The wells were incubated with TCA at room temperature for 5 min with gentle swirling. […]
HASM Cells were incubated at 37° C. and 5% CO2 with 0-20 μg/ml Coenzyme Q10. […] Samples were then taken for quantification of ATP using the Luciferin-Luciferase ATP Assay. […]

The test system is the same in assay [2]. Briefly: HASMC proliferation, Coulter cell count. The settings on record: for Cell number: 24 h incubation, HASMC; for % Diff vs. Ctrl (24 hr): HASMC cell number. The procedure: At approximately 80% confluency, the cells were subcultured using Trypsin-EDTA to detach the cells and Defined Trypsin Inhibitor, DTI to neutralize the cell suspension before centrifugation at 2500 RPM for 8 minutes. The supernatant was aspirated and discarded. The resultant cell pellet was then resuspended in fresh Medium 231. A cell count was performed using a hemocytometer before seeding the experimental 6-well plates at 200,000 cells/well.
Q10 was dissolved in ethanol and the solution was diluted with Medium 231 to the required concentrations. The Vehicle used in preparing the composition comprising about 0.001% to about 60% (w/w) Coenzyme Q10 was composed of MCT, BHT, Glycerol, and Sodium Phosphate buffered to pH 7.2 and subjected to sonication, then diluted with Medium 231 to experimental concentrations.
as §1
The well-plates were decanted to empty the wells of the reagents and any residue was aspirated carefully with an electronic pipettor. 0.5 ml Trypsin-EDTA was added to each well for 5-7 minutes to aid detachment. Upon complete detachment as determined under a microscope, 0.5 ml Medium 231 was added to the resultant cell suspension to neutralize the Trypsin. 0.5 ml of this cell suspension was taken for reading in a Coulter cell counter.
In FIG. 2, HASM Cells were incubated at 37° C. and 5% CO2 with 0-20 μg/ml Coenzyme Q10, The composition comprising about 0.001% to about 60% (w/w) Coenzyme Q10, and the Vehicle(V) used in The composition comprising about 0.001% to about 60% (w/w) Coenzyme Q10. The 6-well plates were incubated for 24 h in Medium 231. After treatment with Trypsin-EDTA and gentle scraping, cells were neutralized with Medium 231 and mixed by pipetting. Samples were then taken for quantification using a Coulter cell counter. (*Significant compared to Ctrl, P<0.05; One-way ANOVA and Dunnett's).

Assay [3] relates to human neonatal keratinocytes (SC-KC). Briefly: Keratinocyte proliferation. As to conditions: in words. The text has this: (§2) FIGS. 7-10 show the results obtained.
Assay [4] relates to Human neonatal fibroblasts (nFIB). Briefly: In vitro incisional wound model, fibroblast migration. As to conditions: versus control, in words. As to the method:
(§3) The proliferation and migration of keratinocytes and fibroblasts are paramount to the restoration of the cutaneous architecture. […] To test the effect of Q10 on neonatal fibroblasts and keratinocytes, an in vitro incisional wound model was employed. Cells were seeded in 6-well tissue culture plates with supplemented media and incubated for 48 hours to facilitate a 90% confluency level prior to experimentation. A cross-shaped “wound” gap was made among the near confluent monolayer of cells in the center of each well. Detached cells were then washed off with medium. Each well was then replenished with medium with or without Q10. […] Cell migration was quantified by time and percentage of “wound” gap covered by cells that migrated into the gap field. The percentage of gap filled (PGf) was calculated as PGf=(1−At/A0)×100, where At is the gap area at time t, and A0 is the gap area at time 0. […]
(§4) Human neonatal fibroblasts (nFIB) and human neonatal keratinocytes (SC-KC) were grown to ˜90% confluency in T-75 flasks at which time they were trypsinized and seeded into 6-well tissue culture plates. […] Cell migration was quantified by time and percentage of “wound” gap covered by cells that migrated into the gap field. The percentage of gap filled (PGf) was calculated as PGf=(1−At/A0)×100, where A(t) is the gap area at time t, and A(0) is the gap area at time 0. […]

In assay [5] the test system is human neonatal keratinocytes (SC-KC). Briefly: In vitro incisional wound model, keratinocyte migration. The settings on record: versus control, in words. The procedure:
as §3, §4

Assay [6] deals with Human neonatal fibroblasts (nFIB). Put plainly: Fibroblast proliferation. As to conditions: in words.
Description: as §2

In the case of `COC1=C(OC)C(=O)C(C/C=C(\C)CC/C=C(\C)CC/C=C(\C)CC/C=C(\C)CC/C=C(\C)CC/C=C(\C)CC/C=C(\C)CC/C=C(\C)CC/C=C(\C)CCC=C(C)C)=C(C)C1=O` [Q-10, 2,3-dimethoxy-5-methyl-6-decaprenyl-1,4-benzoquinone], the “Effect on ATP production” value in assay [1] is “increases ATP production”; in assay [1] (listed as Coenzyme Q10) it was “stimulatory effect on ATP production”. In addition, the values for the Cell number in assay [2] (1.0 μg/ml) and in assay [2] (20.0 μg/ml) were 42.4 10^4 and 63.1 10^4, respectively. In addition, the “% Diff vs. Ctrl (24 hr)” value in assay [2] (1.0 μg/ml) was determined as 65.1%; in assay [2] (20.0 μg/ml) it was 145.6%. Further, the Keratinocyte proliferation entry in assay [3] was “enhances the migration and proliferation”. The “Fibroblast migration (rate of gap coverage)” value in assay [4] was “statistically significant increase in the rate of gap coverage”; in assay [4] (listed as coenzyme Q10), “enhances the migration and proliferation”. The “Keratinocyte migration (rate of gap coverage)” value in assay [5] is “statistically significant increase in the rate of gap coverage”; in assay [5] (listed as coenzyme Q10) it was “enhances the migration and proliferation”. Moreover, the Fibroblast proliferation result in assay [6] is “enhances the migration and proliferation”.
